Measured values published in US7307063B2, “Melanocortin metallopeptides for treatment of sexual dysfunction” (Palatin Technologies, Inc., priority 2001, dated 2007).
Non-standard residues stand in square brackets, D forms with d. No end group written: not given here. *: point of attachment. 1Nal = N[C@@H](Cc1cccc2ccccc12)C(=O)O; Desaminotyrosyl = O=C(CCc1ccc(O)cc1)*; Tic = O=C(O)[C@@H]1Cc2ccccc2CN1; Nle = CCCC[C@H](N)C(=O)O

Legend:
[1] = test system: Male Sprague-Dawley rats; assay: Combination penile erection behavior studies: antagonist IV before IN agonist; type: in vivo, rat;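 as to Mean Penile Erections/Rat: Erections counted over 30 min observation after IN dosing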;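 as to Percent with Penile Erections: Erections counted over 30 min observation after IN dosing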
Description: Conditions were as in Example 3 except as noted. Groups of 5-6 rats received an IV dose of either placebo or antagonist 5 minutes prior to an IN dose of either placebo or agonist. Two antagonists were used: ReO[Heptanoyl-Ser(Bzl)-D-Nal 2′-Arg-Trp-Cys-NH2] and SHU9119 (Hruby V J, Lu D, Sharma S D, et al. J Med Chem 38:3454-3461 (1995)), Ac-Nle-cyclo(-Asp-His-D-Nal 2′-Arg-Trp-Lys)-NH2. The agonist used was Ac-Nle-cyclo(-Asp-His-D-Phe-Arg-Trp-Lys)-OH. Immediately after IN treatment, rats were placed into individual Lucite cages for observation. […] In combination studies, the antagonist was dosed IV 5 minutes prior to a 50 μg/kg IN dose of Ac-Nle-cyclo(-Asp-His-D-Phe-Arg-Trp-Lys)-OH.
These studies were conducted as described above in Example 4 with metallopeptide antagonists administered IV five minutes before IN administration of 50 μg/kg Ac-Nle-cyclo(-Asp-His-D-Phe-Arg-Trp-Lys)-OH. […] The potency of these antagonists also correlated with their relative binding affinities in the in vitro binding assays.

[2] = molecular target: T1, MC4-R (Homo sapiens, UniProt P32245); assay: Functional activity assay: intracellular cAMP in HEK-293 cells expressing MC4-R; type: cell-based; details: Re-complexed peptide
T1 construct: expressed in transfected cells; host or cells: HEK-293
Description: Rhenium-complexed metallopeptides were prepared, with functional evaluation of peptides at MC1-R and MC4-R performed by measuring the accumulation of intracellular cAMP in HEK-293 cells expressing MC4-R or B16-F10 mouse melanoma cells expressing MC1-R. Antagonistic activity was determined by measuring the inhibition of α-MSH-induced cAMP levels following exposure to peptide. Cells, suspended in Earle's Balanced Salt Solution containing 10 mM HEPES, pH 7.5, 5 mM MgCl2, 1 mM glutamine, 0.1% albumin and 0.6 mM 3-isobutyl-1-methyl-xanthine, a phosphodiesterase inhibitor, were plated in 96 well plates at a density of 0.5×10^5 cells per well. Cells were incubated with the test peptides in the presence or absence of α-MSH for 1 hour at 37° C. cAMP levels were measured by EIA (Amersham) in the cell lysates. Data analysis and EC50 values were determined using nonlinear regression analysis with Prism Graph-Pad software.

[3] = molecular target: T1, MC4-R; assay: Competitive binding assay: inhibition of 125I-NDP-α-MSH binding to HEK-293 membranes with cloned human receptor subtype 4
Procedure, shortened: (§1)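 Rhenium-complexed metallopeptides at a chosen single concentration competed with 125I-NDP-α-MSH on membranes of HEK-293 expressing cloned human MC receptors or, for MC1-R, B16-F10 mouse melanoma cells. Percent inhibition normalized to specific binding (nonspecific defined with 1 μM α-MSH); means of triplicates.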

[4] = molecular target: T2, hMC3-R (Homo sapiens, UniProt P41968); assay: Competitive binding assay: inhibition of 125I-NDP-α-MSH binding to HEK-293 membranes with cloned human receptor subtype 3; details: Table 1; 1 μM Re-complexed peptide
T2 construct: expressed in transfected cells; host or cells: HEK-293
Description: Rhenium-complexed metallopeptides of the formulas given in Table 1 were prepared, with the metallopeptides complexed with rhenium using the rhenium transfer agent ReOCl3(PPh3)2 in the presence of 1,8-Diazabicyclo[5,4,0] undec-7-ene as a base, as disclosed in International Application PCT/US00/16396, filed Jun. 14, 2000, Melanocortin Metallopeptide Constructs, Combinatorial Libraries and Applications, incorporated by reference herein. Affinities of compounds were measured using membranes from HEK-293 cells containing cloned human melanocortin receptor subtypes 3, 4 and 5. MC1-R membranes were isolated from B16—F10 mouse melanoma cells. The assay tube also contained a chosen concentration of the test peptide of this invention, complexed to a rhenium metal ion as indicated, for determining its efficacy in inhibiting the binding of ^125I-NDP-α-MSH to its receptor. Non-specific binding was measured by complete inhibition of binding of ^125I-NDP-α-MSH in the assay with the presence of 1 μM α-MSH. 100% specific binding was defined as the difference in radioactivity (cpm) bound to cell membranes in the absence and presence of 1 μM α-MSH. The cpm obtained in presence of test compounds were normalized with respect to 100% specific binding to determine the percent inhibition of ^125I-NDP-α-MSH binding.

[5] = molecular target: T3, MC1-R (Mus musculus, UniProt Q01727); assay: Competitive binding assay: inhibition of 125I-NDP-α-MSH binding to membranes from B16-F10 mouse melanoma cells
T3 construct: MC1-R membranes were isolated from B16—F10 mouse melanoma cells; endogenous in cells; host or cells: B16-F10 mouse melanoma cells
Procedure, shortened: as §1

[6] = test system: Male Sprague-Dawley rats; assay: Penile erection behavior dose response animal studies; type: in vivo, rat
Description: For behavioral experiments test solutions of rhenium-complexed metallopeptides were freshly prepared in DMSO and diluted in saline. Male Sprague-Dawley rats (Taconic) weighing 200-250 g were kept on a 12 hour on/off light cycle with food and water ad libitum. All behavioral studies were performed between 10 a.m. and 5 p.m. Groups of 3-10 rats were treated with the rhenium-complexed metallopeptides at a variety of doses via intravenous (IV) injection. In a second experimental paradigm, rats were treated a selected compound intranasally (IN) using a micropipet to deliver 25 μl of solution into one nostril. Immediately after treatment, rats were placed into individual Lucite cages (27 cm long, 16 cm wide and 25 cm high) for behavioral observation.

[7] = molecular target: T4, hMC5-R (Homo sapiens, UniProt P33032); assay: Competitive binding assay: inhibition of 125I-NDP-α-MSH binding to HEK-293 membranes with cloned human receptor subtype 5
T4 construct: expressed in transfected cells; host or cells: HEK-293
Procedure, shortened: as §1

[8] = molecular target: T5, hMC2-R (Homo sapiens, UniProt P41968); assay: Competitive binding assay of additional compounds, Table 6 hMC2-R; details: 1 μM, mean of triplicate
T5 construct: expressed in transfected cells; host or cells: HEK-293

[9] = agonist alone 50 μg/kg IN, arm of the ReO[Heptanoyl-Ser(Bzl)-D-Nal 2′-Arg-Trp-Cys-NH2] study
[10] = agonist alone 50 μg/kg IN, arm of the SHU9119 study
[11] = Table 1, 1 μM Re-complexed peptide
[12] = IV 50 μg/kg, 30 min observation
[13] = Table 6, 1 μM, mean of triplicate
[14] = combination: antagonist 5 μg/kg IV 5 min prior to 50 μg/kg IN Ac-Nle-cyclo(-Asp-His-D-Phe-Arg-Trp-Lys)-OH

T5 sequence (P41968 whole entry): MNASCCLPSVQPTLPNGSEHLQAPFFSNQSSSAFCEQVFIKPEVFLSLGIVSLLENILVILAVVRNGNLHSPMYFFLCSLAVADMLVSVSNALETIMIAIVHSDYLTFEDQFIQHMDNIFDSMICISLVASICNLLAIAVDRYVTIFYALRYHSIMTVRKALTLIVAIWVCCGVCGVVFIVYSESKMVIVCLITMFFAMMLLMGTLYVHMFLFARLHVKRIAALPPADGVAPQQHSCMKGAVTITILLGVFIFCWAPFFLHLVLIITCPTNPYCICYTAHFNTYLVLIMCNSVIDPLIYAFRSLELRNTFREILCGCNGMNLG
T1 sequence (P32245 whole entry): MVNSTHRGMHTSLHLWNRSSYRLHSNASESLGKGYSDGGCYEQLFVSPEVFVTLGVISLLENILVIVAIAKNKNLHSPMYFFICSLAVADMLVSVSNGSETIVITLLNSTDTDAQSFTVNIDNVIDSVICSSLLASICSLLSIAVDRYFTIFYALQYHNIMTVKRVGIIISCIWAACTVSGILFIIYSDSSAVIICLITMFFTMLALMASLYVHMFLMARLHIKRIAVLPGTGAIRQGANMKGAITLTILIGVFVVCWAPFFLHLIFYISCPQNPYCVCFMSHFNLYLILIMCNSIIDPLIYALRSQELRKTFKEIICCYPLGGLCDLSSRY
T4 sequence (P33032 whole entry): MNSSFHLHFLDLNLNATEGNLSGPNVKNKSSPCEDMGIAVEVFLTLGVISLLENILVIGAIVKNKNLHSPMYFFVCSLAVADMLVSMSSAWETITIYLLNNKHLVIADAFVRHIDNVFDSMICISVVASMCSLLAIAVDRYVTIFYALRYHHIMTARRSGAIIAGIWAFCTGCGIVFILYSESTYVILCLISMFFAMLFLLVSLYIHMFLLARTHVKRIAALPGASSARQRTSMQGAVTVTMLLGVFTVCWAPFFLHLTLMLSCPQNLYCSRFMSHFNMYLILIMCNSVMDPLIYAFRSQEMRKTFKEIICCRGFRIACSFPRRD
T3 sequence (Q01727 whole entry): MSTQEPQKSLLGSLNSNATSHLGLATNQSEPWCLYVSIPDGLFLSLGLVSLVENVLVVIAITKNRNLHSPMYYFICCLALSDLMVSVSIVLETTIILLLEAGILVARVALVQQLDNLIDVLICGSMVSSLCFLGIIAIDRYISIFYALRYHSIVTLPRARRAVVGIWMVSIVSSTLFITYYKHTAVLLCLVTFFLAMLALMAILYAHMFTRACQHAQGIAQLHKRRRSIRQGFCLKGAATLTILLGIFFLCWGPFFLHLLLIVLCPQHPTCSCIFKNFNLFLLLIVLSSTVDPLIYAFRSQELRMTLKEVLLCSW
T2 sequence (P41968 whole entry): as the sequence (P41968 whole entry) above

Substance | Functional activity at MC4-R (cAMP accumulation; inhibition of α-MSH-induced cAMP) [2] | % Inhibition of Binding hMC4-R [3, 13] [%] | % Inhibition of Binding hMC2-R [8] [%] | % Inhibition of Binding MC1-R [5, 13] [%] | % Inhibition of Binding hMC5-R [7, 13] [%] | other results
Ac-Nle-cyclo(-Asp-His-D-Phe-Arg-Trp-Lys)-OH | – | – | – | – | – | Mean Penile Erections/Rat [1, 9]: 1.2 ± 0.3; Percent with Penile Erections [1, 9]: 83%; Mean Penile Erections/Rat [1, 10]: 1.6 ± 0.2; Percent with Penile Erections [1, 10]: 100%
Ac-Nle-Ala-His-D-Phe-Arg-Trp-Cys-NH2 ({Ac-Nle-Ala-H2N}-[dF]RWC-NH2; also: ReO complex) | MC4-R agonists | – | – | – | – | % Inhibition of Binding hMC4-R [3, 11]: 89%; % Inhibition of Binding hMC3-R [4]: 70%; % Inhibition of Binding MC1-R [5, 11]: 91%; % with Penile Erections ([6]; IN 10 μg/kg, 10 rats): 70%; Mean Penile Erections/Rat ([6]; IN 10 μg/kg, 10 rats): 0.9 ± 0.2; Mean Penile Erections/Rat ([6]; IV 10 μg/kg, 30 min observation): 0.25; Mean Penile Erections/Rat ([6]; IV 30 μg/kg, 30 min observation): 0.75; Mean Penile Erections/Rat [6, 12]: 1.0; % Inhibition of Binding hMC5-R [7, 11]: 93%
NH2(CH2)6CO-Ser(Bzl)-D-Nal 2′-Arg-D-Trp-Cys-NH2 | MC4-R antagonists | 92 | 58 | 6 | 83 | –
Ac-Nle-cyclo(-Asp-His-D-Nal 2′-Arg-Trp-Lys)-NH2 | – | – | – | – | – | Mean Penile Erections/Rat ([1]; antagonist alone, 5 μg/kg IV): 0; Percent with Penile Erections ([1]; antagonist alone, 5 μg/kg IV): 0%; Mean Penile Erections/Rat [1, 14]: 0; Percent with Penile Erections [1, 14]: 0%; Effect on erectile behavior induced by Ac-Nle-cyclo(-Asp-His-D-Phe-Arg-Trp-Lys)-OH, in words ([1]; rats, antagonist IV before IN agonist): blocked
Ac-Nle-Ala-His-D-Phe(3′-Cl)-Arg-Trp-Cys-Trp-NH2 | MC4-R agonists | – | – | – | – | % Inhibition of Binding hMC4-R [3, 11]: 100%; % Inhibition of Binding MC1-R [5, 11]: 101%; Mean Penile Erections/Rat [6, 12]: 0.5
3′-Br Phenyl acetyl-Arg-Arg-D-Phe(4′-Cl)-Cys-Trp-NH2 | MC4-R agonists | 92 | 48 | 91 | 89 | % Inhibition of Binding hMC4-R [3, 11]: 100%; % Inhibition of Binding MC1-R [5, 11]: 97%; Mean Penile Erections/Rat [6, 12]: 0.5
D-Nal 2′-D-Phe-Arg-Trp-Cys-NH2 | – | 5 | 0 | 11 | 13 | –
Nal 1′-D-Phe-Arg-Cys-Trp-NH2 ([1Nal][dF]RCW-NH2; also: metal complex) | – | 12 | 6 | 0 | 45 | –
Tic-D-Phe-Arg-Trp-Cys-NH2 ([Tic][dF]RWC-NH2; also: metal complex) | – | 64 | 25 | 14 | 69 | –
3′-(4′-Hydroxyphenyl)propionyl-HiS-D-Phe-Arg-Cys-Trp-NH2 (Desaminotyrosyl-H[dF]RCW-NH2; not fully specified; printed as 3′-(4′-Hydroxyphenyl)propionyl-HiS-D-Phe-Arg-Cys-Trp-NH2) | – | 0 | 0 | 76 | 21 | –
Tic-D-Phe(4′-Cl)-Lys-Cys-NH2 | – | 6 | 0 | 16 | 84 | –
